# Reference: patent publication US20260158056A1, “USE OF LOW MOLECULAR WEIGHT HYALURONIC ACID FOR THE TREATMENT OF LUNG MUCOSAL INFLAMMATION” (INSTITUT NATIONAL DE LA SANTÉ ET DE LA RECHERCHE MÉDICALE, priority 2021, published 2026)
# Columns and labels:
# Format in all cases: cell-based
# [1] = system: IL-8 secreted by non-CF human airway epithelial cells; experiment: IL-8 ELISA, non-CF airway epithelial cell monolayers, Cytomix 24 h then Cytomix + treatment 24 h (curative); details: FIG. 12, 15; curative: Cytomix 24 h, then Cytomix + HA 1 mg/mL or Dexa 10^-6M 24 h; n=8 non-CF patients
# Experimental: (§1) FIG. 12: Measurement by ELISA assay of the pro-inflammatory chemokine IL-8 secreted non-CF human airway epithelial cells cultured as monolayers. Airway epithelial cells were seeded in 48-wells plates and cultured until confluence was reached. Cells were then treated for 24 h with a pro-inflammatory chemokine cocktail (TNFα, IL1β and IFNγ 10 ng/ml each) called Cytomix (Cy). Cells were thereafter treated with a combo containing Cytomix and the anti-inflammatory dexamethasone (Dexa; 10^-6M), 15-45 kDa sodium-hyaluronic acid (HA-Na 15-45 kDa) (ARD—Pomacle—France—as prepared according to WO2004050187), 15-30 kDa sodium-hyaluronic acid (HA-Na 15-30 kDa) (Sigma Aldrich), or 30-50 kDa sodium-hyaluronic acid (HA-Na 30-50 kDa) (Sigma Aldrich) at 1 mg/mL during the following 24 h. The culture medium was finally collected and the IL-8 content was determined by ELISA assay. n=8 different non-CF patients. p<0.001 (***); p<0.01 (**); p<0.05 (*). ns: non-significant.
# (§2) FIG. 15: Measurement by ELISA assay of the pro-inflammatory chemokine IL-8 secreted by non-CF human airway epithelial cells cultured as monolayers. Airway epithelial cells were seeded in 48-wells plates and cultured until confluence was reached. Cells were then treated for 24 h with a pro-inflammatory chemokine cocktail (TNFα, IL1β and IFNγ 10 ng/ml each) called Cytomix (Cy). Cells were thereafter treated with a combo containing Cytomix and the anti-inflammatory dexamethasone (Dexa; 10^-6M), 15-45 kDa sodium-hyaluronic acid (HA-Na 15-45 kDa) (ARD—Pomacle—France—as prepared according to WO2004050187), 15-45 kDa calcium-hyaluronic acid (HA-Ca 15-45 kDa; ARD), or 15-45 kDa potassium hyaluronic acid (HA-K 15-45 kDa; ARD) at 1 mg/mL during the following 24 h. The culture medium was finally collected and the IL-8 content was determined. n=8 different non-CF patients. p<0.001 (***); p<0.01 (**); p<0.05 (*). ns: non-significant.
# [2] = system: IL-8 secreted by non-CF human airway epithelial cells; experiment: IL-8 ELISA, non-CF airway epithelial cell monolayers, Cytomix + treatment 24 h (co-treatment); details: FIG. 13, 16; co-treatment: Cytomix + HA 1 mg/mL or Dexa 10^-6M 24 h; n=8 non-CF patients
# Experimental: FIG. 13: Measurement by ELISA assay of the pro-inflammatory chemokine IL-8 secreted by non-CF human airway epithelial cells cultured as monolayers. Airway epithelial cells were seeded in 48-wells plates and cultured until confluence was reached. Cells were then treated for 24 h with a combo containing a pro-inflammatory chemokine cocktail (TNFα, IL1β and IFNγ 10 ng/ml each) called Cytomix (Cy) and the anti-inflammatory dexamethasone (Dexa; 10^-6M), 15-45 kDa sodium-hyaluronic acid (HA-Na 15-45 kDa) (ARD—Pomacle—France—as prepared according to WO2004050187), 15-30 kDa sodium-hyaluronic acid (HA-Na 15-30 kDa) (Sigma Aldrich), or 30-50 kDa sodium-hyaluronic acid (HA-Na 30-50 kDa) (Sigma Aldrich) at 1 mg/mL. The culture medium was then collected and the IL-8 content was determined. n=8 different non-CF patients. p<0.001 (***); p<0.01 (**); p<0.05 (*). ns: non-significant.
# as §2, with “FIG. 16: Measurement by” for “FIG. 15: Measurement by”, “with a combo containing a pro-inflammatory chemokine” for “with a pro-inflammatory chemokine”, “called Cytomix (Cy) and the” for “called Cytomix (Cy). Cells were thereafter treated with a combo containing Cytomix and the”, “at 1 mg/mL. The culture” for “at 1 mg/mL during the following 24 h. The culture”, “medium was then collected and” for “medium was finally collected and”
# [3] = system: IL-8 secreted by human COPD airway epithelial cells; experiment: IL-8 ELISA, COPD airway epithelial cell monolayers, Cytomix 24 h then Cytomix + treatment 24 h (curative); details: FIG. 17, 19; curative: Cytomix 24 h, then Cytomix + HA 1 mg/mL or Dexa 10^-6M 24 h; n=5 COPD patients
# Experimental: as §1, with “17:” for “12:”, “secreted” for “secreted non-CF”, “human COPD” for “human”, “n=5” for “n=8”, “COPD” for “non-CF”
# as §2, with “19:” for “15:”, “by” for “by non-CF”, “human COPD” for “human”, “10^-6M), or” for “10^-6M),”, “n=5” for “n=8”, “COPD” for “non-CF”
Compound,decrease in IL-8 secretion [1],decrease in IL-8 secretion [2],decrease in IL-8 secretion [3]
15-30 kDa sodium-hyaluronic acid [HA-Na 15-30 kDa],46.1%,38.1%,65%
30-50 kDa sodium-hyaluronic acid [HA-Na 30-50 kDa],34.8%,32.1%,69.5%
15-45 kDa potassium-hyaluronic acid [HA-K 15-45 kDa],17.8%,22.2%,61.1%
"C[C@@H]1C[C@H]2[C@@H]3CCC4=CC(=O)C=C[C@]4(C)[C@@]3(F)[C@@H](O)C[C@]2(C)[C@@]1(O)C(=O)CO [Dexamethasone, dexamethasone, reference compound]",21.1%,33.9%,68.8%
15-45 kDa calcium-hyaluronic acid [HA-Ca 15-45 kDa],6.5%,8.5%,61.5%
15-45 kDa sodium-hyaluronic acid [HA-Na 15-45 kDa],39.6%,41.6%,60.2%
